This passage reports IC50 results from patent US20230151003A1, “COMPOUNDS AND METHODS OF USE” (Exelixis, Inc., priority 2020, published 2023).

One test addresses KDR (Homo sapiens, UniProt P35968). Description: KDR autophosphorylation ELISA in HUVEC cells. It is filed as cell-based. On the set-up: endogenous in cells; host or cells: HUVEC (Lonza #C2519A). Conditions: Table 3 Cellular Activities, VEGF165-stimulated, phospho-KDR ELISA. A digest of the protocol:
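Read-out: phospho-KDR ELISA on cell lysates, quantified against a phospho-KDR standard, normalised to VEGF-stimulated DMSO (100%) and unstimulated (0%) wells, IC50 by 4-parameter fit. Cells were 24 h serum-starved HUVEC given compound for 1 h, then 100 ng/mL VEGF165 for 5 min.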

A further test addresses T1, Mer (Homo sapiens, UniProt Q12866).
T1 construct: host or cells: 293A cells (Thermo Fisher #R70507)
T1 sequence (Q12866 21-999): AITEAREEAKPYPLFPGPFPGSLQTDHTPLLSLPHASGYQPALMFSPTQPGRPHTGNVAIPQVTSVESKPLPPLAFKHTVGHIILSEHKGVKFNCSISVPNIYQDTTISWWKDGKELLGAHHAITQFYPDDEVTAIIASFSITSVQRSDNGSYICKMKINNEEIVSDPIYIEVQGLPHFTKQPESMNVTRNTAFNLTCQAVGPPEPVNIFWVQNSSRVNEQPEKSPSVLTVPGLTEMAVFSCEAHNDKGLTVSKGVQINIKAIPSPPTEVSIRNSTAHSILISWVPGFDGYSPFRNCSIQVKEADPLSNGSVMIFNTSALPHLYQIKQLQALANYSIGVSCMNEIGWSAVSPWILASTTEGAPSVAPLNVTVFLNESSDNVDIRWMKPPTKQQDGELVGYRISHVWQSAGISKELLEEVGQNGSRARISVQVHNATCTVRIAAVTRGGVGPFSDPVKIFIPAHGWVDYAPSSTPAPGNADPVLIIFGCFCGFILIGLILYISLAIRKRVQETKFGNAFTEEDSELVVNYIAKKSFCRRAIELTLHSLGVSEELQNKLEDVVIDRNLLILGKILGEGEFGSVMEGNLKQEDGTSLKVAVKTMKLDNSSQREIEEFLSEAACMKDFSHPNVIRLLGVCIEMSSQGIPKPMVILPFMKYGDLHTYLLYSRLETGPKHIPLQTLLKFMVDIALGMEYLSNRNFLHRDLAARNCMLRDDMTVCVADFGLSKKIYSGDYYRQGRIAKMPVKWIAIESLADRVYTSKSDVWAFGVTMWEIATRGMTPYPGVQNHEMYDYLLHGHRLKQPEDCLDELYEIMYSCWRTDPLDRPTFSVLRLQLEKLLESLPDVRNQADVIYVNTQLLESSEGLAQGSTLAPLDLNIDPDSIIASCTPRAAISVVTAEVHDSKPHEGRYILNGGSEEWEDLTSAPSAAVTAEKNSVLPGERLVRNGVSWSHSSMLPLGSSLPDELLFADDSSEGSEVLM
Description: Mer autophosphorylation ELISA in transient transfected 293A cells. The format is cell-based. Conditions: Table 3 Cellular Activities; MERTK-transfected 293A cells, phospho-Mer ELISA. A digest of the protocol:
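Phospho-Mer quantified by ELISA in lysates of transiently MERTK-transfected 293A cells after 1 h exposure to an 8-point compound series, serum-free, 0.3% DMSO. Activity normalized between DMSO-treated (100%) and reference inhibitor-treated (0%) lysates; IC50 via 4-parameter nonlinear regression.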

KDR, sequence (P35968 20-1356): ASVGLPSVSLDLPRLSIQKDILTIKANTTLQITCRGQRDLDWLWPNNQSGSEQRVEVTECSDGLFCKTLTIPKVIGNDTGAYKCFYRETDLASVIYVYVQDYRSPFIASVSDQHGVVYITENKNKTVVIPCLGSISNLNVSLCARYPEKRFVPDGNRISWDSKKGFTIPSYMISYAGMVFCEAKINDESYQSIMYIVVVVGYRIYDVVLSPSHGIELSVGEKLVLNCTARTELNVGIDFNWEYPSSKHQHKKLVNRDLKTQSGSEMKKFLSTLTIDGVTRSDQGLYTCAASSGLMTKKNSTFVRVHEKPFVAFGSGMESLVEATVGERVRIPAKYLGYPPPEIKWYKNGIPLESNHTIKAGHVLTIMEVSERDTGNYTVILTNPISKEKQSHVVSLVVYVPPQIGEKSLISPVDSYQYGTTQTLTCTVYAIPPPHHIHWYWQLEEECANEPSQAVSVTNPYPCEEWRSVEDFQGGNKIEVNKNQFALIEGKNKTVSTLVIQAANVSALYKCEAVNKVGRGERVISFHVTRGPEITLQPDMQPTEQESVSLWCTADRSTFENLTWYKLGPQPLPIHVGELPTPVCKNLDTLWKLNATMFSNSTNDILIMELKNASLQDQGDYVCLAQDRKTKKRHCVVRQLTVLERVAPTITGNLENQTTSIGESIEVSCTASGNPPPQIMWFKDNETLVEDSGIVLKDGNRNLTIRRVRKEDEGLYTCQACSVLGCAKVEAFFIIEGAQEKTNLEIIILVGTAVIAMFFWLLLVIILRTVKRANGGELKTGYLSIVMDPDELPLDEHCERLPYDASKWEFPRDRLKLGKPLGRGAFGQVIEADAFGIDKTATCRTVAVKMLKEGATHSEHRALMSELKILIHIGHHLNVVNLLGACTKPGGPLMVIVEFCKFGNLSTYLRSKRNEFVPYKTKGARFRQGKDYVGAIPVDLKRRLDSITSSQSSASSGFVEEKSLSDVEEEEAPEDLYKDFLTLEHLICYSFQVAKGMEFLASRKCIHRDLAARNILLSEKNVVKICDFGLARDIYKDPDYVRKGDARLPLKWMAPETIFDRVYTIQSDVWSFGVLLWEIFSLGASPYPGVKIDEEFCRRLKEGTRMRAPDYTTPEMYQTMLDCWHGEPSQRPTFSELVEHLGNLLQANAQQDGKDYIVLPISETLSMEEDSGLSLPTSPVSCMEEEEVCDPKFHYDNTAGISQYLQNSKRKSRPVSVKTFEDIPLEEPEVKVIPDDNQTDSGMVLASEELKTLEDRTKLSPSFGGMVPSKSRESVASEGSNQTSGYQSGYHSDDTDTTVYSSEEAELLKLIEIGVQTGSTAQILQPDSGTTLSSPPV

As for `COc1cc2nccc(Oc3ccc(NC(=O)c4ccc(C)n(-c5cc[n+]([O-])cc5)c4=O)cc3F)c2nc1OC` [Compound 231, N-[4-[(6,7-Dimethoxy-1,5-naphthyridin-4-yl)oxy]-3-fluorophenyl]-6-methyl-1-(1-oxidopyridin-1-ium-4-yl)-2-oxopyridine-3-carboxamide], the IC50 at KDR was 0.1 to 0.3 µM; at Mer, at most 0.1 µM.
The like results for `COc1cc2nccc(Oc3ccc(NC(=O)c4ccc(C)n(-c5ccnc(O)c5)c4=O)cc3F)c2nc1OC` [Compound 232, N-[4-[(6,7-Dimethoxy-1,5-naphthyridin-4-yl)oxy]-3-fluorophenyl]-1-(2-hydroxypyridin-4-yl)-6-methyl-2-oxopyridine-3-carboxamide] were, in that order, 0.3 to 1 µM and at most 0.1 µM.
`COc1cc2nccc(Oc3ccc(NC(=O)c4ccc(C)n(-c5ccnc(F)c5)c4=O)cc3F)c2nc1OC` [Compound 233, N-[4-[(6,7-Dimethoxy-1,5-naphthyridin-4-yl)oxy]-3-fluorophenyl]-1-(2-fluoropyridin-4-yl)-6-methyl-2-oxopyridine-3-carboxamide]: the IC50 against KDR and at Mer was at most 0.1 µM in each case.
For the compound `COc1cc2nccc(Oc3ccc(NC(=O)c4ccc(C)n(-c5cccnn5)c4=O)cc3F)c2nc1OC` [Compound 234, N-[4-[(6,7-Dimethoxy-1,5-naphthyridin-4-yl)oxy]-3-fluorophenyl]-6-methyl-2-oxo-1-pyridazin-3-ylpyridine-3-carboxamide], the figures for the IC50 against KDR and on Mer were 0.1 to 0.3 µM and at most 0.1 µM, respectively.
For `COc1cc2nccc(Oc3ccc(NC(=O)c4cc(C(C)=O)c(C)n(-c5ccoc5)c4=O)cc3F)c2nc1OC` [Compound 235, 5-Acetyl-N-[4-[(6,7-dimethoxy-1,5-naphthyridin-4-yl)oxy]-3-fluorophenyl]-1-(furan-3-yl)-6-methyl-2-oxopyridine-3-carboxamide] the same measures were 0.3 to 1 µM and at most 0.1 µM.
For `COc1cc2nccc(Oc3ccc(NC(=O)c4cc(C(C)=O)c(C)n(-c5ccco5)c4=O)cc3F)c2nc1OC` [Compound 236, 5-Acetyl-N-[4-[(6,7-dimethoxy-1,5-naphthyridin-4-yl)oxy]-3-fluorophenyl]-1-(furan-2-yl)-6-methyl-2-oxopyridine-3-carboxamide] the same measures were 0.3 to 1 µM and at most 0.1 µM.
The like results for `COc1cc2nccc(Oc3ccc(NC(=O)c4cc(C(C)=O)c(C)n(-c5ccco5)c4=O)cc3)c2nc1OC` [Compound 237, 5-Acetyl-N-[4-[(6,7-dimethoxy-1,5-naphthyridin-4-yl)oxy]phenyl]-1-(furan-2-yl)-6-methyl-2-oxopyridine-3-carboxamide] were, in that order, 0.3 to 1 µM and at most 0.1 µM.
Regarding `COc1cnc2c(Oc3ccc(NC(=O)c4cc(C(C)=O)c(C)n(-c5ccco5)c4=O)cc3F)ccnc2c1` [Compound 238, 5-Acetyl-N-[3-fluoro-4-[(7-methoxy-1,5-naphthyridin-4-yl)oxy]phenyl]-1-(furan-2-yl)-6-methyl-2-oxopyridine-3-carboxamide], the IC50 against KDR and against Mer was 0.3 to 1 µM each time.
On to `COc1cnc2c(Oc3ccc(NC(=O)c4cc(C(C)=O)c(C)n(-c5ccoc5)c4=O)cc3F)ccnc2c1` [Compound 240, 5-Acetyl-N-[3-fluoro-4-[(7-methoxy-1,5-naphthyridin-4-yl)oxy]phenyl]-1-(furan-3-yl)-6-methyl-2-oxopyridine-3-carboxamide], for which the values for the IC50 against KDR and against Mer were 0.3 to 1 µM and at most 0.1 µM, respectively.
Regarding `CCOc1ccn(-c2ccc(F)cn2)c(=O)c1C(=O)Nc1ccc(Oc2ccnc3cc(OC)c(OC)nc23)c(F)c1` [Compound 243, N-[4-[(6,7-dimethoxy-1,5-naphthyridin-4-yl)oxy]-3-fluorophenyl]-4-ethoxy-1-(5-fluoropyridin-2-yl)-2-oxopyridine-3-carboxamide], the IC50 at KDR was 0.1 to 0.3 µM; against Mer it was at most 0.1 µM.
